How the values were obtained:
Type in all cases: biochemical
[1] = target: T1, E. coli cysteine desulfurase (Escherichia coli, UniProt P0A6B7, P222S); test: Anti-interference of the detection method for D-serine, cycloserine and serine derivatives
T1 construct: C-terminal histidine stretch (HHHHHH); made in house; host or cells: E. coli (IscA-/SufA- double-deficient strain is mentioned in the summary)

[2] = target: T1, E. coli cysteine desulfurase; test: Quantitative detection of L-serine, absorbance at 528 nm (reaction time and linear range); conditions: L-serine standard with reaction buffer, 25° C.
Procedure: B. Reaction buffer: 40 mM Tris-HCl buffer (pH 9.0), 100 μM E. coli cysteine desulfurase, and 0.4 mM L-cysteine.
L-serine to be tested was mixed with the reaction buffer in equal volumes, and incubated at 25° ° C. for different times; the absorbance was measured at a wavelength of 528 nm; a curve was plotted with the time as the horizontal axis and the absorbance value at 528 nm as the longitudinal axis.
The L-serine standard solution was diluted to three concentrations, respectively: 0.50 mM, 1.00 mM, and 2.00 mM. Each serial dilution of the standard solution and the unknown sample (100 μL) were each mixed with 100 μL of reaction buffer, incubated at room temperature (25° C.) for 2 h, and the absorbance at 528 nm was measured for sample and standard tubes, respectively.
A standard curve was plotted with the concentration of the standard solution as the abscissa and the absorbance measured at a wavelength of 528 nm as the ordinate, and the curve was fitted to obtain a curve equation and an R^2 value.

[3] = target: T1, E. coli cysteine desulfurase; test: Determination of the ability to resist other L-amino acids (colour after incubation with enzyme); conditions: 4 mM amino acid, equal volume of enzyme, 37° C., 250 rpm, 2 h, naked eye

Row | SMILES | anti-interference ability of the detection method [1] | incubation time at which the absorption peak at 528 nm reaches the highest [2] | colour after incubation with E. coli cysteine desulfurase [3]
1 | N[C@H](CO)C(=O)O [D-serine] | good anti-interference ability |  | 
2 | N[C@@H](CO)C(=O)O [L-serine] |  | 2 h | red
3 | N[C@@H]1CON=C1O [cycloserine] | good anti-interference ability |  | 

From patent US12024736B2, “Method for detecting l-serine based on Escherichia coli cysteine desulfurase” (priority 2021, dated 2024)
